Values of other authors, collected in patent US20240237652A1, “Biocidal Composition and Method” (ARXADA, LLC, priority 2021, published 2024).

Tests used:
[1] = system: bacteria, fungi, and yeast
[2] = neutral pH

Molecule | amount required for a reliable and quick biocidal activity [1] [ppm] | solubility in water [2] [ppm]
O=c1[nH]sc2ccccc12 [BIT, 1,2-benzisothiazolin-3-one] | ≤ 500 | 
Zinc pyrithione [ZPT] |  | 8
